The text below walks through data of patent publication US5075289A, “9-R-azacyclic erythromycin antibiotics” (priority 1988, dated 1991).

The structures appear in SMILES notation. Converted amounts (≈) assume the structure as drawn. Like-named read-outs stand apart in the source and are kept apart here. Where only a bound is given, the exact number is not on record here.

Test [1] concerns Streptococcus agalactiae CMX 508. Kind of test: In vitro antibacterial activity, agar dilution MIC. The test is classed as cell-based. The procedure:
(§1) The antimicrobial spectra of a number of compounds of the invention were tested by the following method:
(§2) Twelve petri dishes containing successive aqueous dilutions of the test compound mixed with 10 ml of sterilized Brain Heart Infusion agar (Difco 0418-01-5) are prepared. Each plate is inoculated with 1:100 (or 1:10 for slow growing strains, primarily Micrococcus and Streptococcus) dilutions of up to 32 different microorganisms, using a Steers replicator block The inoculated plates are incubated at 35°-37° C. for 20-24 hours. In addition, a control plate, using BHI agar containing no test compound, is prepared and incubated at the beginning and end of each test.
(§3) An additional plate containing a compound having known susceptibility patterns for the organisms being tested and belonging to the same antibiotic class as the test compound is also prepared and incubated as a further control, as well as to provide test-to-test comparability. Erythromycin A was used for this purpose.
(§4) After incubation, each disk is read. The MIC is defined as the lowest concentration of drug yielding no growth, a slight haze, or sparsely isolated colonies on the inoculum spot as compared to the growth control.

Test [2] concerns Streptococcus pyogenes 2548 INDUC. Kind of test: In vitro antibacterial activity, agar dilution MIC. As to conditions: S. pyogenes 2548 INDUC, Brain Heart Infusion agar, 20-24 hours, read-out: MIC. The test is classed as cell-based. How it is done: as §1, §2, §3, §4
Test [3] has as its system Escherichia coli H560. As to the kind of experiment: In vitro antibacterial activity, agar dilution MIC. Type of test: cell-based. The procedure:
as §1, §2, §3, §4

Test [4] deals with Escherichia coli SS. As to the kind of experiment: In vitro antibacterial activity, agar dilution MIC. The note with it: read-out: MIC. Type of test: cell-based. How it is done: as §1, §2, §3, §4
Test [5] deals with Staphylococcus aureus 45. As to the kind of experiment: In vitro antibacterial activity, agar dilution MIC. Type of test: cell-based. How it is done: as §1, §2, §3, §4
Test [6] has as its system Escherichia coli DC-2. As to the kind of experiment: In vitro antibacterial activity, agar dilution MIC. Type of test: cell-based. The note with it: DC2, E. coli DC-2, Brain Heart Infusion agar, 20-24 hours, read-out: MIC. The procedure:
as §1, §2, §3, §4

Test [7] deals with Staphylococcus aureus CMX 553. Kind of test: In vitro antibacterial activity, agar dilution MIC. The test is classed as cell-based. The note with it: CMX553, S. aureus CMX 553, Brain Heart Infusion agar, 20-24 hours, read-out: MIC. How it is done:
as §1, §2, §3, §4

The test system of test [8] is Micrococcus luteus ATCC 9341. Kind of test: In vitro antibacterial activity, agar dilution MIC. The test is classed as cell-based. How it is done: as §1, §2, §3, §4
The test system of test [9] is Escherichia coli Juhl. Kind of test: In vitro antibacterial activity, agar dilution MIC. Type of test: cell-based. How it is done:
as §1, §2, §3, §4

The subject of test [10] is Staphylococcus aureus CMX 686B. Kind of test: In vitro antibacterial activity, agar dilution MIC. The test is classed as cell-based. The note with it: CMX686B, S. aureus CMX 686B, Brain Heart Infusion agar, 20-24 hours, read-out: MIC. How it is done:
as §1, §2, §3, §4

Test [11] deals with Enterococcus faecium ATCC 8043. As to the kind of experiment: In vitro antibacterial activity, agar dilution MIC. Type of test: cell-based. The procedure: as §1, §2, §3, §4
Test [12] deals with Staphylococcus aureus ATCC 6538P. Kind of test: In vitro antibacterial activity, agar dilution MIC. The test is classed as cell-based. The note with it: ATCC6538P, S. aureus ATCC 6538P, Brain Heart Infusion agar, 35-37° C., 20-24 hours, read-out: MIC. The procedure:
as §1, §2, §3, §4

Test [13] concerns Staphylococcus aureus CMX 503A. Kind of test: In vitro antibacterial activity, agar dilution MIC. As to conditions: CMX503A, S. aureus CMX 503A, Brain Heart Infusion agar, 20-24 hours, read-out: MIC. The test is classed as cell-based. How it is done:
as §1, §2, §3, §4

Test [14] deals with Streptococcus pyogenes 930 CONST. Kind of test: In vitro antibacterial activity, agar dilution MIC. Type of test: cell-based. How it is done:
as §1, §2, §3, §4

In test [15] the test system is Staphylococcus aureus A5177. Kind of test: In vitro antibacterial activity, agar dilution MIC. Type of test: cell-based. As to conditions: S. aureus A5177, Brain Heart Infusion agar, 20-24 hours, read-out: MIC. The procedure:
as §1, §2, §3, §4

The test system of test [16] is Streptococcus bovis A5169. As to the kind of experiment: In vitro antibacterial activity, agar dilution MIC. The test is classed as cell-based. The note with it: read-out: MIC. How it is done: as §1, §2, §3, §4
Test [17] relates to Micrococcus luteus ATCC 4698. Kind of test: In vitro antibacterial activity, agar dilution MIC. Type of test: cell-based. The procedure: as §1, §2, §3, §4
Test [18] relates to Staphylococcus epidermidis 3519. As to the kind of experiment: In vitro antibacterial activity, agar dilution MIC. Type of test: cell-based. As to conditions: S. epidermidis 3519, Brain Heart Infusion agar, 20-24 hours, read-out: MIC. How it is done: as §1, §2, §3, §4
In test [19] the test system is Streptococcus pyogenes EES61. As to the kind of experiment: In vitro antibacterial activity, agar dilution MIC. Type of test: cell-based. The note with it: S. pyogenes EES61, Brain Heart Infusion agar, 20-24 hours, read-out: MIC. How it is done: as §1, §2, §3, §4
The subject of test [20] is Staphylococcus aureus 45 RAR 2. Kind of test: microbe, parasite or virus in culture. The test is classed as cell-based. As to conditions: 45RAR2. How it is done:
as §1, §2, §3, §4

The test system of test [21] is Staphylococcus aureus (NCTC 10649). As to the kind of experiment: In-vivo mouse protection assay (acute mouse protection test). The arrangement: species or system Swiss albino mice. As to conditions: S. aureus NCTC 10649, dosed 1 and 5 hours post infection, 7 days, read-out: ED50. The procedure:
(§5) The acute mouse protection test is conducted on ten mice with each of three levels of drug. Mouse mortality is used to calculate an ED50 value, i.e., the dose of drug required to protect 50% of the test animals against death due to the inoculum challenge.
(§6) The acute mouse protection test is conducted on female, Swiss albino mice, 18-20 grams in weight. […] To check the potency of the inoculum, a titration of the indicated test organism is carried out in control animals. The treatment group of animals is dosed with the test compound at 1 and 5 hours post infection and observed for 7 days. The ED50 values are calculated using the mortality data collected.

In test [22] the test system is Streptococcus pyogenes C-203. Described as above. The arrangement: species or system Swiss albino mice. As to conditions: S. pyogenes C-203, dosed 1 and 5 hours post infection, 7 days, read-out: ED50. The procedure: as §5, §6
For test [23], the system named is Streptococcus pneumoniae (6303). Described as above. Also noted: species or system Swiss albino mice. As to conditions: 168 h. How it is done:
as §5, §6

`CC[C@H]1OC(=O)[C@H](C)[C@@H](O[C@H]2C[C@@](C)(OC)[C@@H](O)[C@H](C)O2)[C@H](C)[C@@H](O[C@@H]2O[C@H](C)C[C@H](N(C)C)[C@H]2O)[C@](C)(O)C[C@@H](C)[C@@H](N2CCN(C(=O)OCc3ccccc3)CC2)[C@H](C)[C@@H](O)[C@]1(C)O` [Example 18]: the MIC was 0.2 µg/mL (≈ 0.213 µM) in test [1] (CMX508, read-out: MIC); 12.5 µg/mL (≈ 13.3 µM) in test [2]; 50 µg/mL (≈ 53.3 µM) in test [3] (H560); 3.1 µg/mL (≈ 3.3 µM) in test [4] (E. coli SS, Brain Heart Infusion agar, 20-24 hours); 0.78 µg/mL (≈ 0.831 µM) in test [5] (S. aureus 45, Brain Heart Infusion agar, 20-24 hours, read-out: MIC); greater than 100 µg/mL in test [6]. Moreover, the MIC is 0.78 µg/mL (≈ 0.831 µM) in [7]; 0.1 µg/mL (≈ 0.107 µM) in [8] (ATCC9341); greater than 100 µg/mL in test [9] (E. coli Juhl, Brain Heart Infusion agar, 20-24 hours, read-out: MIC); 0.78 µg/mL (≈ 0.831 µM) in [10]; 0.39 µg/mL (≈ 0.416 µM) in test [11] (ATCC8043, E. faecium ATCC 8043, Brain Heart Infusion agar, 20-24 hours, read-out: MIC); 0.78 µg/mL (≈ 0.831 µM) in [12]. Besides, the MIC is 0.78 µg/mL (≈ 0.831 µM) in test [13]; 50 µg/mL (≈ 53.3 µM) in test [14] (S. pyogenes 930 CONST, Brain Heart Infusion agar, 20-24 hours, read-out: MIC); 12.5 µg/mL (≈ 13.3 µM) in [15]; 0.05 µg/mL (≈ 0.0533 µM) in test [16] (S. bovis A5169, Brain Heart Infusion agar, 20-24 hours); 0.78 µg/mL (≈ 0.831 µM) in test [17] (ATCC4698, M. luteus ATCC 4698, Brain Heart Infusion agar, 20-24 hours, read-out: MIC); 0.78 µg/mL (≈ 0.831 µM) in test [18]. Also, the values for the MIC in test [19] and in test [20] were 0.1 µg/mL (≈ 0.107 µM) and 1.56 µg/mL (≈ 1.66 µM), respectively.

`CC[C@H]1OC(=O)[C@H](C)[C@@H](O[C@H]2C[C@@](C)(OC)[C@@H](N)[C@H](C)O2)[C@H](C)[C@@H](O[C@@H]2O[C@H](C)C[C@H](N(C)C)[C@H]2O)[C@](C)(O)C[C@@H](C)[C@@H](N2CCCCC2)[C@H](C)[C@@H](O)[C@]1(C)O` [Example 31]: the MIC is 0.05 µg/mL (≈ 0.0623 µM) in [1] (CMX508, S. agalactiae CMX 508, Brain Heart Infusion agar, 20-24 hours, read-out: MIC); 6.2 µg/mL (≈ 7.73 µM) in test [2]; 1.56 µg/mL (≈ 1.94 µM) in test [3] (E. coli H560, Brain Heart Infusion agar, 20-24 hours, read-out: MIC); 0.2 µg/mL (≈ 0.249 µM) in test [4]; 0.39 µg/mL (≈ 0.486 µM) in test [5] (45); 3.1 µg/mL (≈ 3.86 µM) in [6]. Also, the MIC was found to be 0.39 µg/mL (≈ 0.486 µM) in test [7]; 0.05 µg/mL (≈ 0.0623 µM) in [8] (ATCC9341, M. luteus ATCC 9341, Brain Heart Infusion agar, 20-24 hours, read-out: MIC); 6.2 µg/mL (≈ 7.73 µM) in [9]; 0.39 µg/mL (≈ 0.486 µM) in test [10]; 0.2 µg/mL (≈ 0.249 µM) in test [11] (ATCC8043, read-out: MIC); 0.78 µg/mL (≈ 0.972 µM) in [12]. The MIC in [13] is 0.78 µg/mL (≈ 0.972 µM); in test [14] (930CONST), greater than 100 µg/mL; in [15] it was 6.2 µg/mL (≈ 7.73 µM); in test [16], 0.02 µg/mL (≈ 0.0249 µM); in [17] (ATCC4698), 0.39 µg/mL (≈ 0.486 µM); in test [18], 0.78 µg/mL (≈ 0.972 µM). The MIC in test [19] was 0.05 µg/mL (≈ 0.0623 µM); in test [20] it was 0.78 µg/mL (≈ 0.972 µM). In addition, the ED50 in test [21] (NCTC10649, 168 h, Oral) was 125 mg/kg; in test [21] (NCTC10649, sc, 168 h, Subcutaneous), 25.7 mg/kg; in test [22] (C203, 168 h, Oral), 27.9 mg/kg; in test [22] (C203, sc, 168 h, Subcutaneous) it was 0.8 mg/kg; in test [23] (po), 13.8 mg/kg; in test [23] (sc, Subcutaneous, S. pneumoniae 6303, dosed 1 and 5 hours post infection, 7 days, read-out: ED50) it was 1 mg/kg.
